Measured values published in patent US20140135310A1, “SULPHONAMIDE DERIVATIVES OF ALICYCLIC AMINES FOR THE TREATMENT OF CENTRAL NERVOUS SYSTEM DISEASES” (Adamed Sp. z o.o., priority 2011, published 2014).
Read-outs that look alike come from different tables or passages of the source.

Assays:
Type in all cases: cell-based
[1] = biological target: T1, 5-HT1A serotoninergic receptors (Homo sapiens, UniProt P08908); assay: Cellular functional assay, 5-HT1A serotoninergic receptors
T1 sequence (P08908 1-422): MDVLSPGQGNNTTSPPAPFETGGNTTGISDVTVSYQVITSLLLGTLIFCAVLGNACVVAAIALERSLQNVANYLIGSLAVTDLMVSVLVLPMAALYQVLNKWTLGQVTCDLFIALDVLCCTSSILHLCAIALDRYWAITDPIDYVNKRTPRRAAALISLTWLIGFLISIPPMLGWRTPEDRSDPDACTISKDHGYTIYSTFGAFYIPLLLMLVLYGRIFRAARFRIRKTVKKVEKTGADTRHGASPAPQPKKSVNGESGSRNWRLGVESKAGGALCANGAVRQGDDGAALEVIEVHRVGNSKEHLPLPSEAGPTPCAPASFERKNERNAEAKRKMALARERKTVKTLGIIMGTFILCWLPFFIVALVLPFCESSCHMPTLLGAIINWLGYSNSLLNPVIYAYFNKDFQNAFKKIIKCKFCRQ
Experimental: (§1) The results are expressed as a percent of control specific agonist response ((measured specific response/control specific agonist response)×100) obtained in the presence of the test compounds.
(§2) The EC50 values (concentration producing a half-maximal specific response) and IC50 values (concentration causing a half-maximal inhibition of the control specific agonist response) were determined by non-linear regression analysis of the concentration-response curves generated with mean replicate values using Hill equation curve fitting (Y=D+[(A−D)/(1+(C/C50)nH)], where Y=specific response, D=minimum specific response, A=maximum specific response, C=compound concentration, and C50=EC50 or IC50, and nH=slope factor). This analysis was performed using a software developed at Cerep (Hill software) and validated by comparison with data generated by the commercial software SigmaPlot® 4.0 for Windows® (© 1997 by SPSS Inc.).
(§3) For the antagonists, the apparent dissociation constants (Kb) were calculated using the modified Cheng Prusoff equation (Kb=IC50/(1+(A/EC50A)), where A=concentration of reference agonist in the assay, and EC50A=EC50 value of the reference agonist).

[2] = biological target: 5-HT7 serotoninergic receptors (Homo sapiens, UniProt P34969); assay: Cellular functional assay, 5-HT7 serotoninergic receptors; settings: for 5-HT7 ag [%]: agonist mode, percent of control specific agonist response
Experimental: as §1, §2, §3

[3] = biological target: T2, D4 dopaminergic receptors (Homo sapiens, UniProt P21917); assay: Cellular functional assay, D4 dopaminergic receptors; settings: D4.4 (h), CHO cells; for D4 ag [%]: agonism, percent of control specific agonist response (300 nM dopamine for control); for D4 antag [%]: antagonism, stimulus dopamine (100 nM)
T2 sequence (P21917 1-419): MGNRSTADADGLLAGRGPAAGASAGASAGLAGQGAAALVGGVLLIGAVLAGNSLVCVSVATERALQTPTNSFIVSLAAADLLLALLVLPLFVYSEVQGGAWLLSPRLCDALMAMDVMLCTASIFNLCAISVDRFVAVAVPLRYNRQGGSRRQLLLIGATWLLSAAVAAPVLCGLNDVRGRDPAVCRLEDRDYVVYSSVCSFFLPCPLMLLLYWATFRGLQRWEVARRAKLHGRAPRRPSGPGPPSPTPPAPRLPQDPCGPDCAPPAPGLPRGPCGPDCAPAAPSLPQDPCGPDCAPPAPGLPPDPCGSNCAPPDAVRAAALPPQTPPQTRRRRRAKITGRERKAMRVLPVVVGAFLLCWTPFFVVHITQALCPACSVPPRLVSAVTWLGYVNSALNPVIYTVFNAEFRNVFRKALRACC
Experimental: as §1, §2, §3

[4] = biological target: 5-HT2A serotoninergic receptors (Homo sapiens, UniProt P28223); assay: Cellular functional assay, 5-HT2A serotoninergic receptors
Experimental: as §1
as §2, with “factor).” for “factor). This analysis was performed using a software developed at Cerep (Hill software) and validated by comparison with data generated by the commercial software SigmaPlot® 4.0 for Windows® (© 1997 by SPSS Inc.).”
as §3

[5] = biological target: 5-HT6 serotoninergic receptors (Homo sapiens, UniProt P50406); assay: Cellular functional assay, 5-HT6 serotoninergic receptors; settings: agonist mode; percent of control specific agonist response
Experimental: as §1, §2, §3

[6] = biological target: D2 dopaminergic receptors (Homo sapiens, UniProt P14416); assay: Cellular functional assay, D2 dopaminergic receptors; settings: for D2 ag [%]: agonism, percent of control specific agonist response (3 μM dopamine for control); for D2 ag [%] / D2 antag [%]: D2S (h), HEK-293 cells; for D2 antag [%]: antagonism, stimulus dopamine (30 nM)
Experimental: as §1, §2, §3

[7] = biological target: D3 dopaminergic receptors (Homo sapiens, UniProt P35462); assay: Cellular functional assay, D3 dopaminergic receptors; settings: for D3 ag [%]: agonism, percent of control specific agonist response (0.3 μM dopamine for control); for D3 ag [%] / D3 antag [%]: D3 (h), CHO cells; for D3 antag [%]: antagonism, stimulus dopamine (10 nM)
Experimental: as §1, §2, §3

[8] = agonist mode, percent of control specific agonist response

Chain of D2 dopaminergic receptors (P14416 whole entry): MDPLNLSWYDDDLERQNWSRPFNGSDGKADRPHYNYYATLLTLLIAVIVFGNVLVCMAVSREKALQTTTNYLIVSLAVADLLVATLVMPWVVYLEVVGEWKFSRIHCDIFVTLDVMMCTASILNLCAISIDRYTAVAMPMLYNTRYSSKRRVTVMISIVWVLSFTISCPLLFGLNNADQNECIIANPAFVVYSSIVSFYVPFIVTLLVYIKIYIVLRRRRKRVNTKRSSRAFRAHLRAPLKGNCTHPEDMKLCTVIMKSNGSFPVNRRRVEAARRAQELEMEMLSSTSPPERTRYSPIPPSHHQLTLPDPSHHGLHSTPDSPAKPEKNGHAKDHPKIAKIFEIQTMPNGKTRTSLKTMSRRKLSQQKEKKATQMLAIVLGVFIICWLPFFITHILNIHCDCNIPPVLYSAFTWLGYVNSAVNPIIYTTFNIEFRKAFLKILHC
Chain of 5-HT6 serotoninergic receptors (P50406 whole entry): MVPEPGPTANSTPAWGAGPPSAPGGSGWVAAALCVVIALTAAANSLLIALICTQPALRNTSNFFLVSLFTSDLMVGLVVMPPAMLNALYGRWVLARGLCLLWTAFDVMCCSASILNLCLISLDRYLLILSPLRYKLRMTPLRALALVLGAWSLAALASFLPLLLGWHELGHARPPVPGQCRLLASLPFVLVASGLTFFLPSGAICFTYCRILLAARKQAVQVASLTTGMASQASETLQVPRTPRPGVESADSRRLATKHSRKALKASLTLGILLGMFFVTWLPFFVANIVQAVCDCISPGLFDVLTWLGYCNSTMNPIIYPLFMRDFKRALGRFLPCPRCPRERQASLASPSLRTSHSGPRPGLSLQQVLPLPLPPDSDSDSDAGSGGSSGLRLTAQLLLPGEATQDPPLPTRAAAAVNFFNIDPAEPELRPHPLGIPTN
Chain of 5-HT2A serotoninergic receptors (P28223 whole entry): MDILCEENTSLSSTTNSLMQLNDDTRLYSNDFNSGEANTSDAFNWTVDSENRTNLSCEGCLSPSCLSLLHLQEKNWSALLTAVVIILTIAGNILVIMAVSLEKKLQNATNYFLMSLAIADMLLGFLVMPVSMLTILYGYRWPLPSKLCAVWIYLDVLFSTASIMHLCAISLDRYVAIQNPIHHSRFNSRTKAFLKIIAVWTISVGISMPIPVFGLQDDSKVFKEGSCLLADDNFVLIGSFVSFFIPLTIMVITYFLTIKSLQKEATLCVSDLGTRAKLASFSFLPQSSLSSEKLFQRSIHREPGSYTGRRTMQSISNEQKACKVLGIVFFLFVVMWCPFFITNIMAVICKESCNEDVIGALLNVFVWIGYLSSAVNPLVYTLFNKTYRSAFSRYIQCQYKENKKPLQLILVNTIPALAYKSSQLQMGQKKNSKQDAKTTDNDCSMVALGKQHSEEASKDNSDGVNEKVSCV
Chain of 5-HT7 serotoninergic receptors (P34969 whole entry): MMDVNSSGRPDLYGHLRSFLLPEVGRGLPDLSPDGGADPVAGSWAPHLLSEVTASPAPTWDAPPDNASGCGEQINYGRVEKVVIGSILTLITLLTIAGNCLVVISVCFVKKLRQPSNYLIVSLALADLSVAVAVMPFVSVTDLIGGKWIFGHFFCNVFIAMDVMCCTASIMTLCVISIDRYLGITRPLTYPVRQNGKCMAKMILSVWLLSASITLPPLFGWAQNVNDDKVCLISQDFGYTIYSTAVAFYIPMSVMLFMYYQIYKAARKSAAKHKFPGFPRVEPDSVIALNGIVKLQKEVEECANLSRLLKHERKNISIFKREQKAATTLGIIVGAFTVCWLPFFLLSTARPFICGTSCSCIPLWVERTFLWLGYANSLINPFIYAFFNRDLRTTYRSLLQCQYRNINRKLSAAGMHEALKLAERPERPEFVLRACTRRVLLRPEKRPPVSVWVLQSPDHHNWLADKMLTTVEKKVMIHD
Chain of D3 dopaminergic receptors (P35462 whole entry): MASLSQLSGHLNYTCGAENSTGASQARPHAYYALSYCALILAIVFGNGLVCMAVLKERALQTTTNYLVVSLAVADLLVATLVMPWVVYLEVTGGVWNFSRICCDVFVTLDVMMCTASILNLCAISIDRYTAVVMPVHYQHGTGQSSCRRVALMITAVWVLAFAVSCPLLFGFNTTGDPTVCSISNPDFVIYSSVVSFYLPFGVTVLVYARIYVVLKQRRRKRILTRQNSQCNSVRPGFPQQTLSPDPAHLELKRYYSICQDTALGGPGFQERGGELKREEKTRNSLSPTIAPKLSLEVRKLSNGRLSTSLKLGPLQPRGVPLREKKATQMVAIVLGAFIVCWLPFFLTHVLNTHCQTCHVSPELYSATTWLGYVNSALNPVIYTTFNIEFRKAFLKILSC

SMILES	5-HT1A ag [%] [1, 8]	5-HT1A antag [%] ([1]; antagonist mode)	5-HT7 ag [%] [2]	5-HT7 antag [%] ([2]; antagonist mode)	D4 ag [%] [3]	D4 antag [%] [3]	5-HT2A ag [%] [4]	5-HT6 ag [%] [5]	D2 ag [%] [6]	D2 antag [%] [6]	5-HT2A ag [%] [4, 8]	D3 ag [%] [7]	D3 antag [%] [7]	Kb ([4]; apparent dissociation constant, modified Cheng Prusoff equation, read-out: 5-HT2A antag Kb)	Kb ([2]; apparent dissociation constant, modified Cheng Prusoff equation, read-out: 5-HT7 antag Kb)	Kb ([7]; apparent dissociation constant, modified Cheng Prusoff equation, read-out: D3 antag Kb)	Kb ([6]; apparent dissociation constant, modified Cheng Prusoff equation, read-out: D2 antag Kb)
Cc1cccc(S(=O)(=O)NC2CN(CCOc3cccc4c3OCCO4)C2)c1 [Compound 93, N-[1-[2-(2,3-Dihydro-1,4-benzodioxan-8-yloxy)ethyl]azetidin-3-yl]-3-methyl-benzenesulphonamide]	37%	76%	13%	76%													
O=S(=O)(NC1CCN(CCCc2noc3cc(F)ccc23)C1)c1cccc2ccccc12 (stereo not drawn) [Compound 20, N-[1-[3-(6-Fluoro-1,2-benzoxazol-3-yl)propyl]pyrrolidin-3-yl]naphthalene-1-sulphonamide]			−2%		17%	79%	0%	1%	4%	32%							
O=S(=O)(N[C@H]1CCN(CCCc2noc3cc(F)ccc23)C1)c1csc2ccccc12 [Compound 225, N-[(3S)-1-[3-(6-Fluoro-1,2-benzoxazol-3-yl)propyl]pyrrolidin-3-yl]benzothiophene-3-sulphonamide]			0%		−3%	35%		1%	7%	52%	−1%						
O=S(=O)(N[C@@H]1CCN(CCCc2noc3cc(F)ccc23)C1)c1cc2ccc(Cl)cc2s1 [Compound 198, 6-Chloro-N-[(3R)-1-[3-(6-fluoro-1,2-benzoxazol-3-yl)propyl]pyrrolidin-3-yl]benzothiophene-2-sulphonamide]			1%					−1%	4%	83%	−3%	−17%	97%				
Cc1cc(S(=O)(=O)N[C@@H]2CCN(CCCc3noc4cc(F)ccc34)C2)c(C)s1 [Compound 222, N-[(3R)-1-[3-(6-Fluoro-1,2-benzoxazol-3-yl)propyl]pyrrolidin-3-yl]-2,5-dimethyl-thiophene-3-sulphonamide]			−1%		6%	58%	−1%	−1%	6%	65%							
Cc1cc(S(=O)(=O)NC2CCN(CCCc3noc4cc(F)ccc34)C2)c(C)s1 (stereo not drawn) [Compound 221, N-[1-[3-(6-Fluoro-1,2-benzoxazol-3-yl)propyl]pyrrolidin-3-yl]-2,5-dimethyl-thiophene-3-sulphonamide]			2%		10%	73%	−2%	−4%	14%	97%		−3%	100%				
O=S(=O)(N[C@@H]1CCN(CCCc2noc3cc(F)ccc23)C1)c1csc2ccccc12 [Compound 224, N-[(3R)-1-[3-(6-Fluoro-1,2-benzoxazol-3-yl)propyl]pyrrolidin-3-yl]benzothiophene-3-sulphonamide]			−1%		−7%	84%		−1%	5%	57%	−2%						
Cc1cc(S(=O)(=O)N[C@H]2CCN(CCCc3noc4cc(F)ccc34)C2)c(C)s1 [Compound 223, N-[(3S)-1-[3-(6-Fluoro-1,2-benzoxazol-3-yl)propyl]pyrrolidin-3-yl]-2,5-dimethyl-thiophene-3-sulphonamide]			0%		4%	22%	0%	−1%									
O=S(=O)(NC1CCN(CCCc2noc3cc(F)ccc23)C1)c1ccc2ccccc2c1 (stereo not drawn) [Compound 21, N-[1-[3-(6-Fluoro-1,2-benzoxazol-3-yl)propyl]pyrrolidin-3-yl]naphthalene-2-sulphonamide]			−1%				2%	1%	6%	98%		−8%	83%	8.3 nM	1.7 nM	7.3 nM	1.6 nM
O=S(=O)(N[C@@H]1CCN(CCCc2noc3cc(F)ccc23)C1)c1ccc2ccccc2c1 [Compound 206, N-[(3R)-1-[3-(6-Fluoro-1,2-benzoxazol-3-yl)propyl]pyrrolidin-3-yl]naphthalene-2-sulphonamide]			−1%				−1%	−2%	1%	96%		3%	77%				
O=S(=O)(NC1CCN(CCCc2noc3cc(F)ccc23)C1)c1csc2ccccc12 (stereo not drawn) [Compound 26, N-[1-[3-(6-Fluoro-1,2-benzoxazol-3-yl)propyl]pyrrolidin-3-yl]-benzothiophene-3-sulphonamide]			−3%		−4%	88%		0%	3%	68%	−1%						
O=S(=O)(NC1CCN(CCCc2noc3cc(F)ccc23)C1)c1cc2ccc(F)cc2s1 (stereo not drawn) [Compound 234, 6-Fluoro-N-[1-[3-(6-fluoro-1,2-benzoxazol-3-yl)propyl]pyrrolidin-3-yl]benzothiophene-2-sulphonamide]			0%				1%	−1%	2%	91%		−14%	89%				
COc1ccc2cc(S(=O)(=O)NC3CCN(CCCc4noc5cc(F)ccc45)C3)ccc2c1 (stereo not drawn) [Compound 227, N-[1-[3-(6-Fluoro-1,2-benzoxazol-3-yl)propyl]pyrrolidin-3-yl]-6-methoxy-naphthalene-2-sulphonamide]			−2%					−4%	11%	99%	−2%	−6%	105%				
Cc1c(S(=O)(=O)N[C@@H]2CCN(CCCc3noc4cc(F)ccc34)C2)sc2ccc(F)cc12 [Compound 202, 5-Fluoro-N-[(3R)-1-[3-(6-fluoro-1,2-benzoxazol-3-yl)propyl]pyrrolidin-3-yl]-3-methyl-benzothiophene-2-sulphonamide]			−3%					1%	0%	95%	0%	−5%	81%				
